Test results taken from patent US20210244737A1, “COMPOSITIONS FOR TREATING MELANOMA” (INSERM (INSTITUT NATIONAL DE LA SANTÉ ET DE LA RECHERCHE …, priority 2018, published 2021).

Legend:
[1] = test system: 1205Lu melanoma cells; assay: Apoptosis by flow cytometry (AnnexinV-FITC/PI) of cells on MAF-derived ECM; assay type: cell-based; settings: 10 μM Imatinib in presence of 2 μM Vemurafenib, 48 h, 1205Lu on 3D-ECM
Description: Cell cycle profiles were determined by flow cytometry analysis of propidium iodide (PI)-stained cells. Melanoma cells cultured onto cell-derived matrices and treated with or without 2 μM vemurafenib for 48 h were washed, fixed in 80% ethanol and incubated at −20° C. for 24 h. Cells were then stained for 20 min at 37° C. in buffer containing 40 μg/ml PI and 20 μg/ml ribonuclease A from bovine pancreas. Cell cycle profiles were collected on a FACS Canto. Cell death was evaluated by flow cytometry following staining with AnnexinV/PI (eBioscience).

[2] = target: T1, DDR2 (Homo sapiens, UniProt Q16832); assay: Type I collagen-mediated DDR2 tyrosine phosphorylation in melanoma cells (immunoblot); assay type: cell-based; settings: data not shown
T1 sequence (Q16832 22-855): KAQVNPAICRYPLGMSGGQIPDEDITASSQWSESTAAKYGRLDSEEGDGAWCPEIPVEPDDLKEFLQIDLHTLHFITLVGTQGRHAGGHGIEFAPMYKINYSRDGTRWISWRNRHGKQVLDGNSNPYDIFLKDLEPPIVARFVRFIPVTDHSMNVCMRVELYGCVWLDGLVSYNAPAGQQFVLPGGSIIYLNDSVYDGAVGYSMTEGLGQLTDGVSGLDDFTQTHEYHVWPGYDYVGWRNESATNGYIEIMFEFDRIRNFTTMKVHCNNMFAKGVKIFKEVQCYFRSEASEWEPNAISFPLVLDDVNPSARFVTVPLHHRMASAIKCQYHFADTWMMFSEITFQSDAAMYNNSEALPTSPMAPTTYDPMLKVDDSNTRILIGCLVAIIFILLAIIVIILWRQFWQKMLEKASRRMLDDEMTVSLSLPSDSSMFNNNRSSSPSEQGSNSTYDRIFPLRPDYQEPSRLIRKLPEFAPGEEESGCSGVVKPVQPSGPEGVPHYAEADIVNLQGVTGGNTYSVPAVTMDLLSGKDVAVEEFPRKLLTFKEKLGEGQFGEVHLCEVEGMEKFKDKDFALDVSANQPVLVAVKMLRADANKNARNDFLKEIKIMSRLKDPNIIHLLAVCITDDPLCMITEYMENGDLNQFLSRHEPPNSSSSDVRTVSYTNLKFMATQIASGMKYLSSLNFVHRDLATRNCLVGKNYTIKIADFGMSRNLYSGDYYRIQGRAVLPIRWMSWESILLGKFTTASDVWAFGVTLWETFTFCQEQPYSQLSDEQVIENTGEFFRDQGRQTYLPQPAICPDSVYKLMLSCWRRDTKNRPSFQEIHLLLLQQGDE

[3] = test system: 1205Lu melanoma cells; settings: Kaplan-Meier, 1205Lu melanoma-bearing mice
Description: Mouse experiments were carried out in accordance with the Institutional Animal Care and the local ethical committee. […] Tumor was measured by caliper and the volume was calculated using the formula: V=tumor width×tumor length 2×0.5. When tumor reached 100 mm^3, mice were randomly grouped into control and test groups. […] Mice in control group were treated with vehicle. […] After animal sacrifice tumors were dissected, fixed in formalin and embedded in paraffin.

Row | Structure (SMILES) | apoptosis (AnnexinV/PI cytometry) [1] | type I collagen-mediated DDR2 tyrosine phosphorylation [2] | Median time to progression [3]
1 | Cc1ccc(NC(=O)c2ccc(CN3CCN(C)CC3)cc2)cc1Nc1nccc(-c2cccnc2)n1 [Imatinib, (4-(4-methylpiperazin-l-yhnethyl)-N-[4-methyl-3-(4-pyridin-3-yl)pyrimidin-2-ylamino)phenyl-benzamide)] | Induction of apoptosis | efficiently abrogated | –
2 | CCCS(=O)(=O)Nc1ccc(F)c(C(=O)c2c[nH]c3ncc(-c4ccc(Cl)cc4)cc23)c1F [Vemurafenib] | – | – | 36 days
